Laboratory results from patent publication US8183262B2, “Pyridine derivatives as mGluR2 antagonists” (Hoffmann-La Roche Inc., priority 2007, dated 2012).

| SMILES | melting point |
| --- | --- |
| Cc1cc(-c2ccc(C(F)(F)F)cc2)cc(-c2ccnc(-c3cccc(S(=O)(=O)NCCO)c3)c2)n1 [Example 348, N-(2-Hydroxy-ethyl)-3-[6-methyl-4-(4-trifluoromethyl-phenyl)-[2,4′]bipyridinyl-2′-yl]-benzenesulfonamide] | 103 °C (dec.) |
| Cc1cc(-c2ccc(C(F)(F)F)cc2)cc(-c2cccc(-c3cccc(NS(=O)(=O)N4CCOCC4)c3)n2)n1 [Example 351, Morpholine-4-sulfonic acid {3-[6′-methyl-4′-(4-trifluoromethyl-phenyl)-[2,2′]bipyridinyl-6-yl]-phenyl}-amide] | 191 °C |
| Cc1cc(-c2ccc(C(F)(F)F)cc2)cc(-c2cccc(-c3ccnc(N)c3)n2)n1 [Example 358, 6-Methyl-4-(4-trifluoromethyl-phenyl)-[2,2′;6′,4″]terpyridin-2″-ylamine] | 160 °C |
| Cc1cc(-c2ccc(C(F)(F)F)cc2)cc(-c2cccc(-c3cccc(S(=O)(=O)NCCO)c3)n2)n1 [Example 359, N-(2-Hydroxy-ethyl)-3-[6′-methyl-4′-(4-trifluoromethyl-phenyl)-[2,2′]bipyridinyl-6-yl]-benzenesulfonamide] | 110 °C (dec.) |
| Cc1cc(-c2ccc(C(F)(F)F)cc2)nc(-c2ccnc(-c3cccc(N)c3)c2)c1 [Example 361, 3-[4-Methyl-6-(4-trifluoromethyl-phenyl)-[2,4]bipyridinyl-2′-yl]-phenylamine] | 87 °C (dec.) |
| Cc1cc(-c2ccc(C(F)(F)F)cc2)cc(-c2cccc(-c3cccc(S(=O)(=O)N4CCS(=O)(=O)CC4)c3)n2)n1 [Example 368, 6′-[3-(1,1-Dioxo-1λ6-thiomorpholine-4-sulfonyl)-phenyl]-6-methyl-4-(4-trifluoromethyl-phenyl)-[2,2′]bipyridinyl] | 230 °C (dec.) |
| Cc1cc(-c2ccc(C(F)(F)F)cc2)cc(-c2cccc(-c3cccc(S(=O)(=O)N4CCCC4)c3)n2)n1 [Example 369, 6-Methyl-6′-[3-(pyrrolidine-1-sulfonyl)-phenyl]-4-(4-trifluoromethyl-phenyl)-[2,2′]bipyridinyl] | 174 °C |
| Cc1cc(-c2ccc(C(F)(F)F)cc2)cc(-c2cccc(-c3cccc(S(=O)(=O)N4CCN(C)CC4)c3)n2)n1 [Example 370, 6-Methyl-6′-[3-(4-methyl-piperazine-1-sulfonyl)-phenyl]-4-(4-trifluoromethyl-phenyl)-[2,2′]bipyridinyl] | 167 °C (dec.) |
| COCCNS(=O)(=O)c1cccc(-c2cccc(-c3cc(-c4ccc(C(F)(F)F)cc4)cc(C)n3)n2)c1 [Example 371, N-(2-Methoxy-ethyl)-3-[6′-methyl-4′-(4-trifluoromethyl-phenyl)-[2,2′]bipyridinyl-6-yl]-benzenesulfonamide] | 126 °C |
| Cc1cc(-c2ccc(C(F)(F)F)cc2)cc(-c2cccc(-c3cccc(S(=O)(=O)NCCOCCO)c3)n2)n1 [Example 372, N-[2-(2-Hydroxy-ethoxy)-ethyl]-3-[6′-methyl-4′-(4-trifluoromethyl-phenyl)-[2,2′]bipyridinyl-6-yl]-benzenesulfonamide] | 123 °C |
| Cc1cc(-c2ccc(C(F)(F)F)cc2)cc(-c2cccc(-c3cccc(S(=O)(=O)N4CCOCC4)c3)n2)n1 [Example 373, 6-Methyl-6′-[3-(morpholine-4-sulfonyl)-phenyl]-4-(4-trifluoromethyl-phenyl)-[2,2′]bipyridinyl] | 216 °C |
| Cc1cc(-c2ccc(Cl)c(C)c2)nc(-c2cccc(-c3ccc(N)nc3)c2)n1 [Example 376, 5-{3-[4-(4-Chloro-3-methyl-phenyl)-6-methyl-pyrimidin-2-yl]-phenyl}-pyridin-2-ylamine] | 158 °C (dec.) |
| Nc1ccc(-c2cn(-c3nc(-c4ccc(F)cc4)cc(C(F)(F)F)n3)cn2)cn1 [Example 378, 5-{1-[4-(4-Fluoro-phenyl)-6-trifluoromethyl-pyrimidin-2-yl]-1H-imidazol-4-yl}-pyridin-2-ylamine] | 249.5 °C |
| Cc1cc(-c2ccc(Cl)c(C)c2)nc(-c2cccc(-c3cccc(S(N)(=O)=O)c3)c2)n1 [Example 379, 3′-[4-(4-Chloro-3-methyl-phenyl)-6-methyl-pyrimidin-2-yl]-biphenyl-3-sulfonic acid amide] | 201 °C |
| Cc1cc(-c2ccc(Cl)c(C)c2)nc(-c2cccc(-c3ccc(S(N)(=O)=O)s3)c2)n1 [Example 380, 5-{3-[4-(4-Chloro-3-methyl-phenyl)-6-methyl-pyrimidin-2-yl]-phenyl}-thiophene-2-sulfonic acid amide] | 240 °C |
| NS(=O)(=O)c1ccc(-c2cn(-c3nc(-c4ccc(F)c(F)c4)cc(C(F)(F)F)n3)cn2)s1 [Example 385, 5-{1-[4-(3,4-Difluoro-phenyl)-6-trifluoromethyl-pyrimidin-2-yl]-1H-imidazol-4-yl}-thiophene-2-sulfonic acid amide] | 228 °C |
| NS(=O)(=O)c1ccc(-c2cn(-c3nc(-c4ccc(F)cc4)cc(C(F)(F)F)n3)cn2)s1 [Example 386, 5-{1-[4-(4-Fluoro-phenyl)-6-trifluoromethyl-pyrimidin-2-yl]-1H-imidazol-4-yl}-thiophene-2-sulfonic acid amide] | 244.5 °C |
| NS(=O)(=O)c1cccc(-c2cn(-c3nc(-c4ccc(F)cc4)cc(C(F)(F)F)n3)cn2)c1 [Example 387, 3-{1-[4-(4-Fluoro-phenyl)-6-trifluoromethyl-pyrimidin-2-yl]-1H-imidazol-4-yl}-benzenesulfonamide] | 260 °C |
| NS(=O)(=O)c1ccc(-c2cccc(-c3nc(-c4ccc(F)c(F)c4)cc(C(F)(F)F)n3)c2)s1 [Example 388, 5-{3-[4-(3,4-Difluoro-phenyl)-6-trifluoromethyl-pyrimidin-2-yl]-phenyl}-thiophene-2-sulfonic acid amide] | 238 °C |
| NS(=O)(=O)c1cccc(-c2cccc(-c3nc(-c4ccc(F)c(F)c4)cc(C(F)(F)F)n3)c2)c1 [Example 393, 3′-[4-(3,4-Difluoro-phenyl)-6-trifluoromethyl-pyrimidin-2-yl]-biphenyl-3-sulfonic acid amide] | 211 °C |
| NS(=O)(=O)c1ccc(-c2cccc(-c3nc(-c4ccc(F)cc4)cc(C(F)(F)F)n3)c2)s1 [Example 395, 5-{3-[4-(4-Fluoro-phenyl)-6-trifluoromethyl-pyrimidin-2-yl]-phenyl}-thiophene-2-sulfonic acid amide] | 228.5 °C |

Now from value to compound:

| melting point | SMILES |
| --- | --- |
| 92 °C | Cc1cc(-c2ccc(C(F)(F)F)cc2)cc(-c2ccnc(-c3cccc(S(=O)(=O)NC(C)(C)CO)c3)c2)n1 [Example 349, N-(2-Hydroxy-1,1-dimethyl-ethyl)-3-[6-methyl-4-(4-trifluoromethyl-phenyl)-[2,4′]bipyridinyl-2′-yl]-benzenesulfonamide] |
| 75 °C | CC(C)(C)NS(=O)(=O)c1cccc(-c2cccc(-c3nc(-c4ccc(C(F)(F)F)cc4)cc(C(F)(F)F)n3)n2)c1 [Example 362, N-tert-Butyl-3-{6-[4-trifluoromethyl-6-(4-trifluoromethyl-phenyl)-pyrimidin-2-yl]-pyridin-2-yl}-benzenesulfonamide] |
| 171 °C | Cc1cc(-c2ccc(C(F)(F)F)cc2)cc(-c2cccc(-c3cccc(S(=O)(=O)NC(C)(C)CO)c3)n2)n1 [Example 363, N-(2-Hydroxy-1,1-dimethyl-ethyl)-3-[6′-methyl-4′-(4-trifluoromethyl-phenyl)-[2,2′]bipyridinyl-6-yl]-benzenesulfonamide] |
| 244 °C (dec.) | NS(=O)(=O)c1cccc(-c2cccc(-c3nc(-c4ccc(C(F)(F)F)cc4)cc(C(F)(F)F)n3)n2)c1 [Example 364, 3-{6-[4-Trifluoromethyl-6-(4-trifluoromethyl-phenyl)-pyrimidin-2-yl]-pyridin-2-yl}-benzenesulfonamide] |
| 144 °C | CCC(=O)NS(=O)(=O)c1cccc(-c2cc(-c3nc(-c4ccc(C(F)(F)F)cc4)cc(C(F)(F)F)n3)ccn2)c1 [Example 374, N-Propionyl-3-{4-[4-trifluoromethyl-6-(4-trifluoromethyl-phenyl)-pyrimidin-2-yl]-pyridin-2-yl}-benzenesulfonamide] |
| 257 °C | CCC(=O)NS(=O)(=O)c1ccc(-c2cc(-c3nc(-c4ccc(C(F)(F)F)cc4)cc(C(F)(F)F)n3)ccn2)s1 [Example 375, 5-{4-[4-Trifluoromethyl-6-(4-trifluoromethyl-phenyl)-pyrimidin-2-yl]-pyridin-2-yl}-thiophene-2-sulfonic acid propionyl-amide] |
| 192.5 °C | O=S(=O)(NCCO)c1cccc(-c2cc(-c3nc(-c4ccc(C(F)(F)F)cc4)cc(C(F)(F)F)n3)ccn2)c1 [Example 381, N-(2-Hydroxy-ethyl)-3-{4-[4-trifluoromethyl-6-(4-trifluoromethyl-phenyl)-pyrimidin-2-yl]-pyridin-2-yl}-benzenesulfonamide] |
| 221 °C | CC(C)(CO)NS(=O)(=O)c1cccc(-c2cc(-c3nc(-c4ccc(C(F)(F)F)cc4)cc(C(F)(F)F)n3)ccn2)c1 [Example 382, N-(2-Hydroxy-1,1-dimethyl-ethyl)-3-{4-[4-trifluoromethyl-6-(4-trifluoromethyl-phenyl)-pyrimidin-2-yl]-pyridin-2-yl}-benzenesulfonamide] |
| 186 °C | O=S(=O)(c1cccc(-c2cc(-c3nc(-c4ccc(C(F)(F)F)cc4)cc(C(F)(F)F)n3)ccn2)c1)N(CCO)CCO [Example 383, N,N-Bis-(2-hydroxy-ethyl)-3-{4-[4-trifluoromethyl-6-(4-trifluoromethyl-phenyl)-pyrimidin-2-yl]-pyridin-2-yl}-benzenesulfonamide] |
| 153 °C | O=S(=O)(NCCO)c1cccc(-c2cccc(-c3nc(-c4ccc(C(F)(F)F)cc4)cc(C(F)(F)F)n3)c2)c1 [Example 391, 3′-[4-Trifluoromethyl-6-(4-trifluoromethyl-phenyl)-pyrimidin-2-yl]-biphenyl-3-sulfonic acid (2-hydroxy-ethyl)-amide] |
| 111.5 °C | O=S(=O)(c1cccc(-c2cccc(-c3nc(-c4ccc(C(F)(F)F)cc4)cc(C(F)(F)F)n3)c2)c1)N(CCO)CCO [Example 392, 3′-[4-Trifluoromethyl-6-(4-trifluoromethyl-phenyl)-pyrimidin-2-yl]-biphenyl-3-sulfonic acid bis-(2-hydroxy-ethyl)-amide] |
